Laboratory results reported in patent publication US20010055590A1, “Method for enhancing myoblast migration and invasion in the context of gene therapy” (priority 1999, published 2001).

B1: recombinant human platelet-derived growth factor-BB (protein, UniProt P01127 82-190, looked up)
Platelet-derived growth …: SLGSLTIAEPAMIAECKTRTEVFEISRRLIDRTNANFLVWPPCVEVQRCSGCCNNRNVQCRPTQVQLRPVQVRKIEIVRKKPIFKKATVTLEDHLACKCETVAAARPVT
modifications: Platelet-derived growth factor subunit B
notes: recombinant human platelet-derived growth factor-BB

Columns and labels:
Format in all cases: cell-based
[1] = test system: mouse myoblasts; assay: In vitro mouse myoblast migration assay (gelatin-coated membrane); settings: 12 hours; for stimulation of mouse myoblast migration over the DMEM control: 25 ng/ml bFGF, 50 μg/ml fibronectin, 10 ng/ml HGF, 2 ng/ml TGF-β1; for effect on mouse myoblast migration: stimulant in bottom chamber
Experimental: Mouse myoblasts were previously isolated from hind limb muscles of 4-6 week old severe combined immunodeficient (SCID) mice and clonally purified from contaminating fibroblasts (Yao et al. “Primary myoblast-mediated gene: transfer: persistent expression of human factor IX in mice” Gene Therapy 1:99-107, 1994). Myoblasts (approximately 1×10^6 cells) were plated on 6 cm tissue culture plates coated with 0.5% gelatin (Sigma, St. Louis, Mo.) and grown in growth medium consisting of Dulbecco's Modified Eagle Medium (DMEM) (Gibco BRL, Gaithersburg Md.) supplemented with 20% fetal bovine serum (FBS; Gibco) and 0.5% chick embryo extract (CEE; Gibco). All animal studies were carried out following the institutional guidelines for ethical animal use. Human myoblasts were isolated using trypsin digestion from abdominal wall or chest wall muscle biopsies, and surgery. Written consent was obtained from all patients prior to biopsy isolation as approved by the University Hospital's Institutional Regulation Board on the use of human subjects. Cells were preplated on uncoated plates for 1 hour to separate muscle fibroblasts. […] All experiments were done with myoblasts of passage 7 or lower. Myoblast migration and invasion were examined using a commercially available in vitro cell migration and invasion assay kit (Biocoat, Becton Dickinson, Franklin Lakes, N.J.) as described by Albini et al. (A rapid in vitro assay for quantitating the invasive potential of tumor cells Cancer Res 47:3239-3245, 1987). Myoblasts were grown to approximately 70% confluence, rinsed three times in serum-free DMEM, followed by incubation for 3 hours in 0.2% bovine serum albumin (BSA) in DMEM to eliminate the effects of serum. Cells were then trypsinized and collected by centrifugation. Cells were resuspended in serum-free DMEM at a density of 1×10^5 cells/ml, and 0.5 ml aliquots of cell suspension were added to the top chamber. […] Fibronectin subfragments of 45 KDa (Sigma), 120 kDa (Gibco), 63 kDa (Retronectin, Takara) and 70 KDa (Sigma) were used alone or in combination. […] For migration studies, the upper chamber membrane was coated with 0.1% gelatin and cells were allowed to migrate for 8-12 hours, while for invasion studies, the upper membrane was coated with 5 μl of Matrigel® diluted to 5 mg/ml in sterile phosphate buffered saline (PBS) and cells were allowed to invade for 24 hours. The top side of the insert membrane was scrubbed free of cells using a cotton swab and the bottom side was stained using the Leukostat-I system (Fisher Diagnostics, Pittsburgh, Pa.). The number of cells per field was counted in 10 randomly selected fields and averaged for each condition. To evaluate the effects of inactivation or activation of MMPs, aliquots (0.05 units in 50 μl PBS) of purified human plasmin (Sigma) or 50 mM N-acetyl cysteine (NAC; Sigma) were added with the cells to the top chamber of the migration assay and growth factor was added to the bottom. […] Myoblasts (5×10^4 cells/well) were stimulated with various growth factors and fibronectin, and their ability to migrate or invade through a Matrigel® barrier (panel a, mouse myoblast migration at 12 hours; panel b, mouse myoblast invasion at 24 hours). […] Bars represent mean ±SEM from a minimum of 3 separate experiments. […] Further studies were done to elucidate the role of MMPs in cytokine-mediated mouse myoblast migration.

[2] = test system: MMP-2; assay: Gelatin zymography of mouse myoblast culture medium, MMP-2; settings: mouse myoblasts treated 24 hours; densitometry normalized to DMEM control
Experimental: Briefly, myoblasts were grown in 6 cm tissue culture plates to approximately 70% confluence, then rinsed three times with serumfree DMEM and incubated for 3 hours in DMEM containing 0.2% BSA to eliminate the effects of serum. Growth factors were added and cells were incubated for 24 hours. Culture medium was then collected, centrifuged to pellet detached cells, and concentrated ten-to twenty-fold using the Centricon-10 (Amicon, Beverly, Mass.) system. The protein concentration of the supernatants was determined using the Bio-Rad protein microassay system with BSA used as the standard. Samples were stored at −70° C. until use. For gelatin zymography, aliquots (10 μg as the total protein per sample) were electrophoresed at constant voltage on a 10% polyacrylamide gel containing 2 mg/ml gelatin. The gel was rinsed three times for 15 min in 2.5% Triton-X 100 to remove SDS and renature the proteins, then incubated in MMP activation buffer (0.05 M Tris-HCl, pH 7.5 with 5 mM CaCl2) for 24 hours at 37° C. with constant shaking. Gels were stained overnight in 0.5% Coomassie blue R-250, and destained for 1 hour in 40% methanol: 10% acetic acid. Proteinase activity was quantified by densitometric scanning of bands using a Bio-Rad Gel Doc 1000 video camera imaging system (Bio Rad, Hercules, Calif.). […] Values are arbitrary densitometric units, which are normalized to DMEM control for each experiment and shown as values ±SEM representing a minimum of 3 experiments per condition. […] Mouse myoblasts were treated for 24 hours with either DMEM alone, fibronectin (50 μg/ml), or individual fragments (37.5 μg/ml) of 45, 120, 63 (Retronectin), 75 kDa and their combinations, 45 kDa/120 kDa and 120 kDa/63 kDa.

[3] = test system: human myoblasts; assay: In vitro human myoblast migration assay; settings: 12 hour time point
Experimental: Mouse myoblasts were previously isolated from hind limb muscles of 4-6 week old severe combined immunodeficient (SCID) mice and clonally purified from contaminating fibroblasts (Yao et al. “Primary myoblast-mediated gene: transfer: persistent expression of human factor IX in mice” Gene Therapy 1:99-107, 1994). Myoblasts (approximately 1×10^6 cells) were plated on 6 cm tissue culture plates coated with 0.5% gelatin (Sigma, St. Louis, Mo.) and grown in growth medium consisting of Dulbecco's Modified Eagle Medium (DMEM) (Gibco BRL, Gaithersburg Md.) supplemented with 20% fetal bovine serum (FBS; Gibco) and 0.5% chick embryo extract (CEE; Gibco). All animal studies were carried out following the institutional guidelines for ethical animal use. Human myoblasts were isolated using trypsin digestion from abdominal wall or chest wall muscle biopsies, and surgery. Written consent was obtained from all patients prior to biopsy isolation as approved by the University Hospital's Institutional Regulation Board on the use of human subjects. Cells were preplated on uncoated plates for 1 hour to separate muscle fibroblasts. Approximately 95% of the cells were desmin-positive following immunohistochemical staining of representative culture samples, and were capable of differentiation into myotubes, indicating high purity of the myoblast preparation. All experiments were done with myoblasts of passage 7 or lower. Myoblast migration and invasion were examined using a commercially available in vitro cell migration and invasion assay kit (Biocoat, Becton Dickinson, Franklin Lakes, N.J.) as described by Albini et al. (A rapid in vitro assay for quantitating the invasive potential of tumor cells Cancer Res 47:3239-3245, 1987). Myoblasts were grown to approximately 70% confluence, rinsed three times in serum-free DMEM, followed by incubation for 3 hours in 0.2% bovine serum albumin (BSA) in DMEM to eliminate the effects of serum. Cells were then trypsinized and collected by centrifugation. Cells were resuspended in serum-free DMEM at a density of 1×10^5 cells/ml, and 0.5 ml aliquots of cell suspension were added to the top chamber. […] Fibronectin subfragments of 45 KDa (Sigma), 120 kDa (Gibco), 63 kDa (Retronectin, Takara) and 70 KDa (Sigma) were used alone or in combination. The growth factor concentrations used were those which could produce maximal effects as examined in the present studies by extending from values reported by Bischoff (“Chemotaxis of skeletal muscle satellite cells” Devel. Dynamics 208:505-515, 1997). For migration studies, the upper chamber membrane was coated with 0.1% gelatin and cells were allowed to migrate for 8-12 hours, while for invasion studies, the upper membrane was coated with 5 μl of Matrigel® diluted to 5 mg/ml in sterile phosphate buffered saline (PBS) and cells were allowed to invade for 24 hours. The top side of the insert membrane was scrubbed free of cells using a cotton swab and the bottom side was stained using the Leukostat-I system (Fisher Diagnostics, Pittsburgh, Pa.). The number of cells per field was counted in 10 randomly selected fields and averaged for each condition. To evaluate the effects of inactivation or activation of MMPs, aliquots (0.05 units in 50 μl PBS) of purified human plasmin (Sigma) or 50 mM N-acetyl cysteine (NAC; Sigma) were added with the cells to the top chamber of the migration assay and growth factor was added to the bottom. […] The effects of growth factors on human myoblast migration in vitro (12 hour time point) were somewhat different from those observed with mouse myoblasts. […] The greatly elevated level of migration of human myoblasts was due in part to the extremely low migration in the BSA control (basal level) of human cells compared to mouse cells. The largest effects on human myoblast migration were produced by fibronectin (100-fold), PDGF (about 62-fold), TGF-β (about 54-fold) and HGF (46-fold) over the control level, while bFGF produced only a 37-fold stimulation (FIG. 7a). […]

Row | Molecule | stimulation of mouse myoblast migration over the DMEM control [1] | effect on mouse myoblast migration [1] | increase of total MMP-2 expression [2] | stimulation of human myoblast migration over the BSA control level [3]
1 | purified human transforrning growth factor-β1 [TGF-β1] | 5 fold | stimulated migration of mouse myoblasts to various degrees | 36% | about 54 fold
2 | recombinant hepatocyte growth factor [HGF] | 8 fold | stimulated migration of mouse myoblasts to various degrees |  | 46 fold
3 | recombinant human insulin-like growth factor-I [IGF-I] |  | stimulated migration of mouse myoblasts to various degrees | 69% | 
4 | B1 |  | stimulated migration of mouse myoblasts to various degrees | 35% | about 62 fold
